Key:
PA biofilm = assay: Biofilm kill in protein-rich (FBS) environment (Example 3); type: cell-based, Pseudomonas aeruginosa; conditions: for Log Reduction in Organism Count: PA
Description: (§1) Chlorine dioxide efficacy against biofilm in protein-rich environment A series of experiments were conducted to determine the effect of FBS on the kill of PA. MRSA and mixture PA/MRSA biofilms. Biofilms were grown as described in Example 1, Disks were immersed in 25 ml of FBS solution at double the target FBS concentration, and to that was added 25 ml of chlorine dioxide solution at double the target chlorine dioxide concentration. After the desired contact time, disks were removed from the treatment solutions, neutralized, and plated as described above.
(§2) Dosage is given both as the nominal dose based upon the initial chlorine dioxide concentration, and the actual dosage as estimated from the initial chlorine dioxide concentration and the decay relationships described above.
(§3) Columns 3-6 are measured data; columns 7-11 are calculated data. For K2 having a positive sign (such as Samples 20-21), it was assumed that there was insufficient FBS present to cause a material loss of chlorine dioxide. Therefore, for such samples, it was assumed that chlorine dioxide was unchanged over the time of the experiment FIG. 4 is a graph of the results.

MRSA biofilm = assay: as above; type: cell-based, Staphylococcus aureus; conditions: for Log Reduction in Organism Count: MRSA
Description: as §1, §2, §3

mixed PA/MRSA biofilm = assay: Biofilm kill on ceramic disks, clean system (Example 1); type: cell-based, Pseudomonas aeruginosa and Staphylococcus aureus; conditions: for Log Reduction in Organism Count: MRSA + PA, total bacteria
Description: (§4) A series of experiments were conducted to estimate the dosage of chlorine dioxide needed to kill bacterial biofilms consisting of Pseudomonas acruginosa (PA), methicillin resistant Staphylococcus aureus (MRSA), or a combination of both.
(§5) Bacterial biofilms were grown for between 7 and 10 days on non-porous ceramic disks in a spinning disk biofilm reactor. The reactors were inoculated with PA, MRSA, or a mixture of MRSA and PA bacteria to produce PA, MRSA, or mixed PA/MRSA biofilms respectively.
(§6) Chlorine dioxide solutions were produced at different nominal concentrations using ASEPTROL S-Tab10 tablets, and the exact concentrations were then measured using a Hach Model 2400 UV/Vis spectrophotometer in accordance with the manufacturer's instructions. Pairs of biofilm-containing disks were immersed for different times in solutions of different chlorine dioxide concentrations, neutralized with dilute sodium thiosul fate solution, and then plated to determine the number of surviving bacteria on each disk. Two untreated disks were also exposed to neutralizing solution and plated to determine the starting bacterial counts. In all tests, the baseline bacterial counts were in the range of 10^7 to 10^7.5 colony-forming units per disk (cfu/disk). A one log reduction refers to reducing the cfu/disk by one order of magnitude, e.g., a reduction from 10^7.1 cfu/disk to 10^6.1 cfu/disk. Accordingly, a substantially complete kill is achieved in the example if the log reduction of bacteria is about 7 to 7.5.
(§7) The results are presented in terms of log reduction of the different bacterial organisms. In the case of mixed PA/MRSA biofilms, results are given as total bacteria.

[1] = system: Pseudomonas aeruginosa (PA) biofilm; assay: as above; type: cell-based; conditions: for Log Reduction in Organism Count: PA
Description: as §4, §5, §6, §7

[2] = system: methicillin resistant Staphylococcus aureus (MRSA) biofilm; assay: as above; type: cell-based; conditions: for Log Reduction in Organism Count: MRSA
Description: as §4, §5, §6, §7

[O][Cl+][O-] [ClO2, chlorine dioxide]
corrected dose rate resulting in complete kill (PA biofilm; PA biofilm, with FBS): ≥ 2000 ppm-rain
Log Reduction in Organism Count (PA biofilm; Sample 27, FBS 131 mg/mg ClO2, 15.0 min, initial 191 ppm, nominal 2865, corrected 2236 ppm-min): 7.1 log
Log Reduction in Organism Count (PA biofilm; Sample 28, FBS 131 mg/mg ClO2, 40.0 min, initial 191 ppm, nominal 7640, corrected 5559 ppm-min): 7.1 log
Log Reduction in Organism Count (PA biofilm; Sample 29, FBS 104 mg/mg ClO2, 15.0 min, initial 240 ppm, nominal and corrected 3600 ppm-min): 7.1 log
Log Reduction in Organism Count (PA biofilm; Sample 30, FBS 104 mg/mg ClO2, 30.0 min, initial 240 ppm, nominal and corrected 7200 ppm-min): 7.1 log
Log Reduction in Organism Count (PA biofilm; Sample 31, FBS 104 mg/mg ClO2, 60.0 min, initial 240 ppm, nominal and corrected 14400 ppm-min): 7.1 log
corrected dose rate resulting in complete kill (MRSA biofilm; MRSA biofilm, with FBS): ≥ 2000 ppm-rain
Log Reduction in Organism Count (MRSA biofilm; Sample 22, FBS 131 mg/mg ClO2, 15.0 min, initial 191 ppm, nominal 2865, corrected 2236 ppm-min): 4.7 log
Log Reduction in Organism Count (MRSA biofilm; Sample 23, FBS 131 mg/mg ClO2, 40.0 min, initial 191 ppm, nominal 7640, corrected 5559 ppm-min): 4.7 log
Log Reduction in Organism Count (MRSA biofilm; Sample 24, FBS 104 mg/mg ClO2, 15.0 min, initial 240 ppm, nominal and corrected 3600 ppm-min): 4.7 log
Log Reduction in Organism Count (MRSA biofilm; Sample 25, FBS 104 mg/mg ClO2, 30.0 min, initial 240 ppm, nominal and corrected 7200 ppm-min): 4.7 log
Log Reduction in Organism Count (MRSA biofilm; Sample 26, FBS 104 mg/mg ClO2, 60.0 min, initial 240 ppm, nominal and corrected 14400 ppm-min): 4.7 log
Log Reduction in Organism Count (mixed PA/MRSA biofilm; Sample 12, 10.0 min, 52 ppm ClO2, 520 ppm-min): 5.5 log
Log Reduction in Organism Count (mixed PA/MRSA biofilm; Sample 13, 30.0 min, 52 ppm ClO2, 1560 ppm-min): 7.4 log
Log Reduction in Organism Count (mixed PA/MRSA biofilm; Sample 14, 1.0 min, 181 ppm ClO2, 181 ppm-min): 5.1 log
Log Reduction in Organism Count (mixed PA/MRSA biofilm; Sample 15, 5.0 min, 160 ppm ClO2, 800 ppm-min): 7.4 log
Log Reduction in Organism Count (mixed PA/MRSA biofilm; Sample 16, 30.0 min, 160 ppm ClO2, 4800 ppm-min): 7.4 log
dosage achieving a kill of about 5 orders of magnitude (5 log) (mixed PA/MRSA biofilm; mixed PA/MRSA biofilm, clean system (Sample 12)): greater than 200 ppm-min
dosage achieving a kill of about 5 orders of magnitude (5 log) ([1]; PA biofilm, clean system (Sample 7)): greater than 200 ppm-min
Log Reduction in Organism Count ([1]; Sample 6, 0.5 min, 200 ppm ClO2, 100 ppm-min): 5.9 log
Log Reduction in Organism Count ([1]; Sample 7, 5.0 min, 43 ppm ClO2, […]-min): 5.7 log
Log Reduction in Organism Count ([1]; Sample 8, 5.0 min, 187 ppm ClO2, 935 ppm-min): 7.5 log
Log Reduction in Organism Count ([1]; Sample 9, 10.0 min, 37 ppm ClO2, 370 ppm-min): 7.5 log
Log Reduction in Organism Count ([1]; Sample 10, 50.0 min, 35 ppm ClO2, 1750 ppm-min): 7.5 log
Log Reduction in Organism Count ([1]; Sample 11, 50.0 min, 166 ppm ClO2, 8300 ppm-min): 7.5 log
dosage achieving a kill of about 5 orders of magnitude (5 log) ([2]; MRSA biofilm, clean system (Sample 1)): greater than 200 ppm-min
Log Reduction in Organism Count ([2]; Sample 1, 1.0 min, 208 ppm ClO2, 208 ppm-min): 5.5 log
Log Reduction in Organism Count ([2]; Sample 2, 5.0 min, 204 ppm ClO2, 1020 ppm-min): 7.1 log
Log Reduction in Organism Count ([2]; Sample 3 (second line), 30.0 min, 40 ppm ClO2, 1200 ppm-min): 5.1 log
Log Reduction in Organism Count ([2]; Sample 3, 10.0 min, 45 ppm ClO2, 450 ppm-min): 5.5 log
Log Reduction in Organism Count ([2]; Sample 4, 30.0 min, 175 ppm ClO2, 5250 ppm-min): 7.1 log

— patent US8703106B2, “Chlorine dioxide treatment for biological tissue” (priority 2009, dated 2014)
